Laboratory results: BigSolDB 2.1

CC(=O)Nc1ccc(CC(=O)O)cc1
solubility (mole fraction)
Settings	278.15 K	283.15 K	288.15 K	293.15 K	298.15 K	303.15 K	308.15 K	313.15 K	318.15 K
in 2-butanone	0.00496	0.00586	0.00689	0.00821	0.00975	0.0115	0.0137	0.0162	0.0192
in acetone	0.00366	0.00441	0.00534	0.00646	0.0078	0.00942	0.0114	0.0136	0.0161
in acetonitrile	0.00093	0.00116	0.00142	0.00175	0.00215	0.00262	0.00318	0.00381	0.00455
in cyclohexane	–	1.89e-06	2.51e-06	3.4e-06	4.44e-06	5.83e-06	7.44e-06	9.5e-06	1.21e-05
in ethanol	0.0062	0.00723	0.00851	0.0102	0.0121	0.0143	0.0171	0.0201	0.0238
in ethyl acetate	0.000627	0.000783	0.000985	0.00126	0.00156	0.00193	0.00238	0.00291	0.00357
in isopropanol	0.00293	0.00353	0.00437	0.0054	0.00666	0.00823	0.0101	0.0123	0.0149
in methanol	0.00792	0.00927	0.0113	0.0138	0.0169	0.0207	0.0249	0.0303	0.0369
in n-butanol	0.00401	0.0048	0.0058	0.00711	0.00871	0.0105	0.0126	0.0149	0.0178
in n-propanol	0.00538	0.00628	0.00745	0.00889	0.0105	0.0126	0.0149	0.0175	0.0204
in toluene	2.62e-06	3.44e-06	4.5e-06	5.88e-06	7.6e-06	9.71e-06	1.24e-05	1.59e-05	2.04e-05
in water	0.000163	0.000208	0.000264	0.000336	0.000421	0.000534	0.000661	0.000826	0.00104
